Measured values as given in PubChem BioAssay (NCI).
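Values below derive from 48-hour exposures of cells grown in 96-well plates, with endpoints linearly interpolated between the two concentrations bracketing the appropriate inhibition level. Abbreviation: GI50, concentration required for 50% inhibition of growth. TGI marks complete inhibition of growth.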

Tests used:
Experiment in all cases: NCI anticancer screen, dose series, 48 h
HOP-18 NSCLC = tested on: HOP-18 NSCLC
HS 578T breast = tested on: HS 578T breast
MCF7 breast = tested on: MCF7 breast
MDA-N = tested on: MDA-N
RXF-631 renal = tested on: RXF-631 renal

| SMILES | TGI (HOP-18 NSCLC) | GI50 (HS 578T breast) | TGI (HS 578T breast) | GI50 (MCF7 breast) | TGI (MCF7 breast) | further results |
| --- | --- | --- | --- | --- | --- | --- |
| O=C(CCc1nc(=S)[nH][nH]1)Nc1ccccc1Cl | > 100 µM |  |  |  |  |  |
| Cc1cc(C)c(NC(=O)c2sc3nc4c(cc3c2N)C(=O)CCC4)c(C)c1 |  | 4.51 µM | > 100 µM | 2.09 µM | > 100 µM |  |
| COc1ccc(C[N+](C)(C)N)cc1OC |  | > 100 µM | > 100 µM | > 100 µM | > 100 µM | GI50 (MDA-N): > 100 µM; TGI (MDA-N): > 100 µM |
| CC(=O)O[C@H]1CCC2[C@@H]3CC[C@]4(C)CC(=O)C=C[C@]4(C)C3CC[C@@]21C (stereo partly specified) | > 53.7 µM |  |  |  |  | TGI (MDA-N): 74.7 µM; TGI (RXF-631 renal): > 100 µM |
| O=C(O)CNS(=O)(=O)c1ccc(NC(=O)c2ccc([N+](=O)[O-])cc2)cc1 | > 100 µM |  |  |  |  | TGI (RXF-631 renal): > 100 µM |
| CC/C=C\C[C@H](O)C/C=C1/C(=O)C=C[C@@H]1C/C=C\CCCC(=O)OC |  | 5.18 µM | 40.1 µM | 0.376 µM | 3.62 µM |  |
| COc1ccc(/C=C/c2c(C(=O)/C=C/c3ccccc3)c(C)nc3ccccc23)cc1 |  |  |  | 1.37 µM | 7.74 µM |  |
| CCCC(CCC)NCC(O)c1cc(-c2ccc(C(F)(F)F)cc2)nc(C(F)(F)F)c1 (stereo unspecified) |  | 1.69 µM | 4.14 µM | 1.43 µM | 2.87 µM |  |
| COCC[C@H]1CCC/C=C/[C@@H]2C[C@H](O)C[C@H]2[C@H](O)/C=C/C(=O)O1 |  | 0.0506 µM | > 100 µM | 0.0437 µM | 0.171 µM |  |
| O=C(Nc1n[nH]c2cc(-c3ccccc3)ccc12)C1CC1 |  | 18.9 µM | > 25 µM | 3.95 µM | > 25 µM |  |
| CN(C)CCC1(C2=CCCC2)CC/C(=C\c2ccc(Cl)cc2)C1=O (stereo unspecified) | 24.8 µM |  |  |  |  | TGI (RXF-631 renal): 25.4 µM |
| CC1=C(/C=C/Cl)CC(Cl)C(C)(Cl)C1 (stereo unspecified) |  |  | > 100 µM |  | > 100 µM | TGI (MDA-N): > 100 µM |
| CCCCCCCCCCCCCCCC(=O)OCC(C[As](=O)(O)O)OC(=O)CCCCCCCCCCCCCCC (stereo unspecified) | > 100 µM |  | > 100 µM |  | > 100 µM | TGI (MDA-N): > 100 µM; TGI (RXF-631 renal): > 100 µM |
| O=c1cc(NCC(O)CN2CCCC2)n(Cc2ccccc2)c(=O)n1Cc1ccccc1 (stereo unspecified) |  | 37 µM | > 100 µM | 19.1 µM | 34.8 µM |  |
| Cc1cc2nc(C=C(C(F)(F)F)C(F)(F)F)oc2cc1C |  |  | 8.84 µM |  | > 10 µM | TGI (MDA-N): > 10 µM |
| O=C(c1cccc2ccccc12)N1CCC(C2CCN(C(=O)c3cccc4ccccc34)CC2)CC1 | > 100 µM |  |  |  |  | TGI (RXF-631 renal): > 100 µM |
| CCOC(=O)C1SC(=Nc2ccc(C)c(C)c2)N=C1C (stereo unspecified) | > 100 µM |  |  |  |  |  |
| O=S(=O)(c1ccc(NC(=S)NC23CC4CC(CC(C4)C2)C3)cc1)N1CCCCC1 |  | 4.87 µM | > 100 µM | 3.18 µM | > 100 µM |  |
| CNC(=S)/N=C(\N)N(C)C | > 100 µM |  |  |  |  |  |

| SMILES | TGI (HOP-18 NSCLC) | GI50 (HS 578T breast) | TGI (HS 578T breast) | GI50 (MCF7 breast) | TGI (MCF7 breast) | further results |
| --- | --- | --- | --- | --- | --- | --- |
| c1ccc(Sc2ccc(Cc3nc4cc5ccccc5cc4[nH]3)cc2)cc1 |  | 17.7 µM | 91.5 µM | 6.73 µM | > 100 µM |  |
| COC(=O)[C@@]12C(=O)C=CC(=O)C1C1C(=CC2C)OC2OC3(CCCCC3)OC21 (stereo partly specified) | 34.6 µM |  |  |  |  |  |
| COc1cc2[nH]c3c(c2cc1OC)CCN[C@]31CC[C@]2(CC3c4c(cc(OC)c(O)c42)CCN3C)C[C@H]1OC (stereo partly specified) | 46.7 µM |  |  |  |  | TGI (RXF-631 renal): 25.7 µM |
| O=C1c2ccccc2C(=O)C1(O)c1c[nH]c2ccccc12 |  |  |  |  |  | TGI (RXF-631 renal): > 100 µM |
| C=CCCCCC/C=C\[C@@H](O)C#CC#C/C=C/CO |  | > 100 µM | > 100 µM | 32.7 µM | > 100 µM |  |
| CCCCNC1CCCCC[C@H]1O (stereo partly specified) | > 100 µM |  |  |  |  |  |
| CCCCC(CC)COC(=O)C[N+](C)(C)CCOC(c1ccccc1)c1ccccc1 (stereo unspecified) |  | 2.08 µM | 6.68 µM | 1.99 µM | 4.34 µM |  |
| O=C1C2C3C=C4c5ccccc5N(c5ccccc5)C4(C2C(=O)N1c1ccc([N+](=O)[O-])cc1)[C@H]1C(=O)N(c2ccc([N+](=O)[O-])cc2)C(=O)[C@@H]31 (stereo partly specified) | > 100 µM |  |  |  |  |  |
| Cc1nnc(NS(=O)(=O)c2ccc(N=Nc3cc(N=Nc4ccc(S(=O)(=O)Nc5nnc(C)s5)cc4)c4c(NC(=O)C(Cl)Cl)cccc4c3OC(=O)C(Cl)Cl)cc2)s1 (tested in a mixture with another compound) |  |  |  |  |  | TGI (RXF-631 renal): > 100 µM |
| C=C(C)CCN[Si](c1ccccc1)(c1ccccc1)C(C)(C)C | 33.4 µM |  |  |  |  | TGI (RXF-631 renal): 41.5 µM |
| Cc1[nH]c(=O)nc2[nH][nH]c(=O)c12 | > 100 µM |  |  |  |  |  |
| CCOC(=O)CCC(=O)C1c2cccc(O)c2C(=O)c2c(O)cc(C)cc21 (stereo unspecified) | 1.33 µM |  |  |  |  | TGI (RXF-631 renal): 1.65 µM |
| OCC1OC(n2cnc3c2NC=NC[C@H]3O)C(Cl)C1O (stereo partly specified) |  |  | > 100 µM |  | > 100 µM | TGI (MDA-N): > 100 µM |
| COc1ccc(C(=O)c2cc(C)c(OC)c(C)c2)cc1OC(=O)CCl |  | < 0.01 µM | 98.5 µM | < 0.01 µM | > 100 µM |  |
| CCOC(=O)C(=O)Nc1ccccc1CC | > 100 µM |  |  |  |  | TGI (RXF-631 renal): > 100 µM |
| CC(C)c1ccc(-c2cc(-c3cn[nH]c3-c3ccccn3)ccn2)cc1 |  | > 16.2 µM | > 25 µM | > 18.9 µM | > 25 µM |  |
| CCOC(=O)C1CCN(S(=O)(=O)/N=C2/NC(=O)NC2=C(Cl)Cl)CC1 |  | 9.14 µM | 65.3 µM | 0.33 µM | 22 µM |  |
| COc1ccc(C2=C(Cl)c3cc(OC)c(OC)cc3C2Cl)cc1 (stereo unspecified) | 53.5 µM |  | 76.5 µM |  | 22.8 µM | TGI (MDA-N): 22.8 µM |
| CC(C)c1c(O)c(O)c2c(c1O)C(=O)C(O)=C1C(C)(C)CCC[C@@]12C |  |  | 43.5 µM |  | 12.7 µM |  |
